One series deals with DENV-2 NGC. The experiment in a line: Antiviral activity against DENV-2 NGC in Vero-B cells (viral RNA load by RT-qPCR). Type of series: cell-based, Dengue virus. The following applies: DENV-2 in Vero-B cells, inhibition of viral RNA replication by 50% (Table 3). For orientation: In qPCR the cycle at which signal appears reflects the starting amount.
A further series can be described thus: in vitro. The following applies: African green monkey; for CC50 at 4 days: uninfected quiescent Vero-B cells.
The subject of series [1] is DENV-3 strain H87 prototype. As to the kind of experiment: Antiviral activity against DENV-3 in Vero-B cells (viral RNA load by RT-qPCR). Type of series: cell-based, Dengue virus.
The subject of series [2] is DENV-4 strain Dak HD 34 460. As to the kind of experiment: Antiviral activity against DENV-4 in Vero-B cells (viral RNA load by RT-qPCR). The format is cell-based, Dengue virus. The note with it: Dengue virus, DENV4, Vero B.
The subject of series [3] is DENV-1 Djibouti strain D1/H/IMTSSA/98/606. As to the kind of experiment: Antiviral activity against DENV-1 in Vero-B cells (viral RNA load by RT-qPCR). The format is cell-based, Dengue virus.

The structures appear in SMILES notation. pEC50: −log10 of the molar value. Read-outs that look alike come from different tables or passages of the source.

What is called pEC50 is −log10 of the EC50, conventionally taken in molar units. Regarding `CN(C)C(=O)c1cccc(NC(C(=O)c2c[nH]c3ccccc23)c2ccccc2)c1` (centres unmarked) [CPD-051], the pEC50 in the series on DENV-2 NGC (Dengue virus, DENV2, Vero B) was 5.61; in series [1] (Dengue virus, DENV3, Vero B), 4.62; in series [2], 4.49; in series [3] (Dengue virus, DENV1, Vero B), 5.24. In addition, the CC50 at 4 days in “in vitro” is greater than 125000 nM.

`COc1cc(NC(C(=O)c2nn(C)c3ccccc23)c2ccccc2)cc(OCCO)c1` (centres unmarked) [CPD-298]: the pEC50 in the series with DENV-2 NGC (Dengue virus, DENV2, Vero B) is 6.38; in series [1] (Dengue virus, DENV3, Vero B), 5.24; in series [2], 5.34; in series [3] (Dengue virus, DENV1, Vero B), 5.69. The CC50 at 4 days in the series “in vitro” was greater than 116000 nM.

Consider `COc1cccc(NC(C(=O)c2cn(CCO)c3cc(F)ccc23)c2ccccc2)c1` (centres unmarked) [CPD-245], for which the pEC50 in the series on DENV-2 NGC (Dengue virus, DENV2, Vero B) was 7.10; in series [1] (Dengue virus, DENV3, Vero B), 5.62; in series [2] it was 5.52; in series [3] (Dengue virus, DENV1, Vero B), 6.15. The molecule further showed a CC50 in “in vitro” of 16000 nM.

In the case of `COc1cccc(NC(C(=O)c2nn(C)c3cc(F)ccc23)c2ccccc2)c1` (centres unmarked) [CPD-281], the pEC50 is 6.68 in the series with DENV-2 NGC (Dengue virus, DENV2, Vero B); 5.25 in series [1] (Dengue virus, DENV3, Vero B); 5.95 in series [2]; 6.07 in series [3] (Dengue virus, DENV1, Vero B). Also, the CC50 at 4 days in “in vitro” was greater than 128000 nM.

In the case of `COc1cccc(NC(C(=O)c2c[nH]c3ccccc23)c2ccc(F)nc2)c1` (centres unmarked) [CPD-214], the negative-log EC50 (pEC50) is 7.52 in the series on DENV-2 NGC (Dengue virus, DENV2, Vero B); 6.00 in series [1] (Dengue virus, DENV3, Vero B); 5.38 in series [2]; 6.82 in series [3] (Dengue virus, DENV1, Vero B). In “in vitro”, the CC50 at 4 days worked out at 16000 nM.

As for `COc1cccc(NC(C(=O)c2c[nH]c3cc(F)ccc23)c2cccnc2)c1` (centres unmarked) [CPD-152], the pEC50 is 7.05 in the series with DENV-2 NGC (Dengue virus, DENV2, Vero B); 6.00 in series [1] (Dengue virus, DENV3, Vero B); 5.25 in series [2]; 5.69 in series [3] (Dengue virus, DENV1, Vero B). The CC50 at 4 days in “in vitro” amounted to 75000 nM.

Turning to `COc1cc(CO)cc(NC(C(=O)c2c[nH]c3cc(F)ccc23)c2ccccc2)c1` (centres unmarked) [CPD-285], the negative logarithm of the EC50 (pEC50) in the series with DENV-2 NGC (Dengue virus, DENV2, Vero B) is 7.40; in series [1] (Dengue virus, DENV3, Vero B) it was 5.66; in series [2], 5.64; in series [3] (Dengue virus, DENV1, Vero B), 6.08. The CC50 at 4 days in the series “in vitro” was 50000 nM.

As for `COc1cccc(NC(C(=O)c2c[nH]c3c(C)cccc23)c2cc3ccccn3n2)c1` (centres unmarked) [CPD-329], the negative-log EC50 (pEC50) in the series with DENV-2 NGC (Dengue virus, DENV2, Vero B) was 8.00; in series [1] (Dengue virus, DENV3, Vero B) it was 6.49; in series [2] it was 5.53; in series [3] (Dengue virus, DENV1, Vero B), 6.57. This molecule also returned a CC50 at 4 days in the series “in vitro” of 41000 nM.

As for `COc1cncc(NC(C(=O)c2c[nH]c3ccccc23)c2ccccc2)c1` (single isomer, unassigned) [CPD-299], the pEC50 with DENV-2 NGC is 7.70; in series [1], 6.11; in series [2], 5.44; in series [3], 6.30. In the series “in vitro”, the CC50 at 4 days was 62000 nM.

Take `COc1cc(NC(C(=O)c2c[nH]c3ccccc23)c2ccc(C#N)cc2)cc(OC)c1` (centres unmarked) [CPD-233]: the pEC50 in the series on DENV-2 NGC (Dengue virus, DENV2, Vero B) is 8.00; in series [1] (Dengue virus, DENV3, Vero B), 5.89; in series [2], 5.51; in series [3] (Dengue virus, DENV1, Vero B), 6.66. In addition, the CC50 at 4 days in “in vitro” was 11000 nM.

Take `COc1cccc(NC(C(=O)c2c[nH]c3c(Cl)cccc23)c2ccccc2)c1` (centres unmarked) [CPD-084]: the pEC50 in the series on DENV-2 NGC (Dengue virus, DENV2, Vero B) is 7.52; in series [1] (Dengue virus, DENV3, Vero B) it was 5.62; in series [2], 5.51; in series [3] (Dengue virus, DENV1, Vero B), greater than 6.30. The molecule also had a CC50 at 4 days in the series “in vitro” greater than 127000 nM.

In the case of `COc1cc(NC(C(=O)c2c[nH]c3ccccc23)c2ccccc2)ccn1` (centres unmarked) [CPD-045], the pEC50 was 7.22 in the series on DENV-2 NGC (Dengue virus, DENV2, Vero B); 6.06 in series [1] (Dengue virus, DENV3, Vero B); 4.96 in series [2]; 6.19 in series [3] (Dengue virus, DENV1, Vero B). In addition, the CC50 at 4 days in the series “in vitro” was greater than 139000 nM.

As to `COc1cccc(NC(C(=O)c2c[nH]c3ccccc23)c2ccc(OC)nc2)c1` (centres unmarked) [CPD-055], the pEC50 with DENV-2 NGC (Dengue virus, DENV2, Vero B) is 7.15; in series [1] (Dengue virus, DENV3, Vero B), 5.47; in series [2], 5.35; in series [3] (Dengue virus, DENV1, Vero B), 5.73. Further, in “in vitro”, the CC50 at 4 days stood at 50000 nM.

Regarding `COc1cccc(NC(C(=O)c2c[nH]c3ccccc23)c2cc(C)on2)c1` (centres unmarked) [CPD-025], the pEC50 in the series on DENV-2 NGC (Dengue virus, DENV2, Vero B) is 6.17; in series [1] (Dengue virus, DENV3, Vero B) it was 4.89; in series [2], 4.93; in series [3] (Dengue virus, DENV1, Vero B) it was 5.10. The same molecule gave a CC50 at 4 days in the series “in vitro” of 48000 nM.

Take `COc1cccc(NC(C(=O)c2nn(C)c3ccccc23)c2cc3ccccn3n2)c1` (centres unmarked) [CPD-273]: the negative-log EC50 (pEC50) in the series with DENV-2 NGC (Dengue virus, DENV2, Vero B) was 6.49; in series [1] (Dengue virus, DENV3, Vero B), 5.12; in series [2] it was 5.08; in series [3] (Dengue virus, DENV1, Vero B), 6.24. Besides, in “in vitro”, the CC50 at 4 days is greater than 122000 nM.

Consider `COc1cc(NC(C(=O)c2c[nH]c3ccccc23)c2cnc(OC)cn2)cc(OCCO)c1` (centres unmarked) [CPD-292], for which the negative logarithm of the EC50 (pEC50) in the series on DENV-2 NGC (Dengue virus, DENV2, Vero B) is 7.22; in series [1] (Dengue virus, DENV3, Vero B), 5.95; in series [2], 5.15; in series [3] (Dengue virus, DENV1, Vero B), 6.08. The molecule further displayed a CC50 at 4 days in “in vitro” of 68000 nM.

As to `COc1cc(CO)cc(NC(C(=O)c2c[nH]c3ccccc23)c2cnc(OC)cn2)c1` (centres unmarked) [CPD-288], the negative-log EC50 (pEC50) in the series on DENV-2 NGC (Dengue virus, DENV2, Vero B) was 6.92; in series [1] (Dengue virus, DENV3, Vero B), 5.57; in series [2], 5.20; in series [3] (Dengue virus, DENV1, Vero B), 5.72. The molecule also returned a CC50 at 4 days in “in vitro” of 77000 nM.

For the molecule `COc1cccc(NC(C(=O)c2c[nH]c3ccc(C#N)cc23)c2ccccc2)c1` (centres unmarked) [CPD-126], the negative logarithm of the EC50 (pEC50) in the series on DENV-2 NGC (Dengue virus, DENV2, Vero B) was 7.15; in series [1] (Dengue virus, DENV3, Vero B) it was 5.07; in series [2], 5.20; in series [3] (Dengue virus, DENV1, Vero B), 5.52. This molecule also came in with a CC50 at 4 days in the series “in vitro” of 16000 nM.

Turning to `COc1cc(NC(C(=O)c2nn(C)c3ccccc23)c2ccccc2)cc(OC)c1` (centres unmarked) [CPD-265], the negative logarithm of the EC50 (pEC50) was 7.70 with DENV-2 NGC (Dengue virus, DENV2, Vero B); 5.79 in series [1] (Dengue virus, DENV3, Vero B); 5.31 in series [2]; 6.54 in series [3] (Dengue virus, DENV1, Vero B). In “in vitro”, this molecule yielded a CC50 at 4 days greater than 124000 nM.

For the molecule `COc1cccc(NC(C(=O)c2c[nH]c3ccccc23)c2cnc(OC)cn2)c1` (centres unmarked) [CPD-249], the negative logarithm of the EC50 (pEC50) with DENV-2 NGC (Dengue virus, DENV2, Vero B) was 7.00; in series [1] (Dengue virus, DENV3, Vero B), 5.34; in series [2] it was 5.70; in series [3] (Dengue virus, DENV1, Vero B), 5.95. Also, in the series “in vitro”, the CC50 at 4 days came to 53000 nM.

In the case of `COc1cccc(NC(C(=O)N2CCc3ccccc32)c2ccccc2)c1` (centres unmarked) [CPD-056], the negative-log EC50 (pEC50) is 6.35 in the series on DENV-2 NGC (Dengue virus, DENV2, Vero B); 4.16 in series [1] (Dengue virus, DENV3, Vero B); 5.23 in series [2]; 4.98 in series [3] (Dengue virus, DENV1, Vero B). The CC50 at 4 days in “in vitro” is greater than 139000 nM.

Take `COc1cccc(NC(C(=O)c2nn(C)c3cc(OC)ccc23)c2ccccc2)c1` (centres unmarked) [CPD-266]: the pEC50 in the series on DENV-2 NGC (Dengue virus, DENV2, Vero B) is 7.22; in series [1] (Dengue virus, DENV3, Vero B), 5.36; in series [2] it was 5.45; in series [3] (Dengue virus, DENV1, Vero B) it was 6.15. In the series “in vitro”, this molecule registered a CC50 at 4 days greater than 124000 nM.

Regarding `COc1cccc(NC(C(=O)c2c[nH]c3ccccc23)c2cn3ncccc3n2)c1` (centres unmarked) [CPD-238], the negative-log EC50 (pEC50) in the series on DENV-2 NGC (Dengue virus, DENV2, Vero B) is 7.40; in series [1] (Dengue virus, DENV3, Vero B) it was 5.78; in series [2] it was 4.99; in series [3] (Dengue virus, DENV1, Vero B), 6.27. Moreover, the CC50 at 4 days in the series “in vitro” was greater than 125000 nM.

Consider `COc1cncc(NC(C(=O)c2c[nH]c3ccc(F)cc23)c2ccc(OC)nc2)c1` (single isomer, unassigned) [CPD-322], for which the pEC50 was 7.70 in the series on DENV-2 NGC, 6.49 in series [1], 5.52 in series [2] and 6.52 in series [3]. Besides, in “in vitro”, the CC50 at 4 days was 51000 nM.

For `COc1cc(NC(C(=O)c2c[nH]c3ncc(F)cc23)c2ccccc2)cc(OC)c1` (centres unmarked) [CPD-234], the pEC50 with DENV-2 NGC (Dengue virus, DENV2, Vero B) was 7.30; in series [1] (Dengue virus, DENV3, Vero B) it was 5.70; in series [2], 5.38; in series [3] (Dengue virus, DENV1, Vero B) it was 6.12. In the series “in vitro”, this molecule returned a CC50 at 4 days of 15000 nM.

Values taken from US12012411B2, “Viral replication inhibitors” (Katholieke Universiteit Leuven, priority 2011, dated 2024).
